Values quoted from earlier work, collected in patent US20100172981A1, “Ibuprofen-Effervescent Preparation Having a High Dissolution Rate and Method for the Production thereof” (Losan Pharma GMBH, priority 2006, published 2010).

Conditions: general statement in the background section

## CC(C)Cc1ccc(C(C)C(=O)O)cc1.[Na] (stereo not shown) [ibuprofen-sodium]
  solubility / dissolution in water (words, background): dissolves only slowly in water
